One may read the MIC as the smallest concentration in the dilution series that meets the test's criterion for growth inhibition. A low value points to a more susceptible organism.

For 9 compounds, MIC results are on record in DBAASP.

Among the test systems are Pseudomonas aeruginosa; Staphylococcus aureus; Escherichia coli B; Bacillus subtilis 168; Escherichia coli K91BK.
What all share (experiment): ≥ marks a high value that may be exact or a test limit, other limits are often not marked, values filed in µg/mL are converted to µM
The subject of assay [1] is Candida albicans F7-39/IDE99.
For assay [2], the system named is Micrococcus luteus CCM 144.
The subject of assay [3] is Staphylococcus epidermidis.
The test system of assay [4] is Pseudomonas aeruginosa ATCC 27853.
Assay [5] relates to Staphylococcus aureus ATCC 43300.
The subject of assay [6] is Staphylococcus aureus FDA 209P.
For assay [7], the system named is Bacillus subtilis ATCC 6633.
Assay [8] relates to Bacillus anthracis Sterne 34F2.
Assay [9] has as its system Bacillus subtilis var. niger ATCC 9372.
Assay [10] deals with Burkholderia thailandensis.
Assay [11] deals with Staphylococcus aureus NCTC 12493.
In assay [12] the test system is Staphylococcus aureus NCTC 10788.
In assay [13] the test system is Enterococcus faecalis NCTC 12697.
Assay [14] relates to Candida albicans NCYC 1467.
Assay [15] has as its system Escherichia coli NCTC 10418.
The subject of assay [16] is Klebsiella pneumoniae ATCC 43816.
In assay [17] the test system is Shigella dysenteriae ATCC 9752.
Assay [18] concerns Klebsiella pneumoniae ATCC 10031.
The test system of assay [19] is Salmonella enterica subsp. enterica serovar Typhimurium ATCC 14028.
The subject of assay [20] is Staphylococcus aureus ATCC 6538P.
Assay [21] has as its system Micrococcus luteus ATCC 10240.
Assay [22] has as its system Escherichia coli ATCC 25922.
The subject of assay [23] is Staphylococcus epidermidis ATCC 12228.

Values after ≈ are worked out from the molar mass of the structure shown. Bounds are passed on as bounds.

Take `CC[C@H](C)[C@H](NC(=O)CNC(=O)[C@H](C)NC(=O)[C@H](Cc1c[nH]c2ccccc12)NC(=O)[C@H](CC(C)C)NC(=O)[C@@H](N)CC(N)=O)C(=O)N[C@@H](CC(C)C)C(=O)N[C@@H](CCCCN)C(=O)N[C@@H](Cc1cnc[nH]1)C(=O)N[C@H](C(=O)N[C@H](C(=O)N[C@@H](CCCCN)C(N)=O)[C@@H](C)CC)[C@@H](C)CC` [NLWAGILKHIIK]: the MIC in [1] was 10.8 µM (≈ 15.2 µg/mL); in the assay on Pseudomonas aeruginosa, greater than 100 µM; in the assay with Staphylococcus aureus, 36.7 µM (≈ 51.6 µg/mL); against Escherichia coli B, 12.5 µM (≈ 17.6 µg/mL); against Bacillus subtilis 168, 4.5 µM (≈ 6.32 µg/mL); in assay [2], 2.5 µM (≈ 3.51 µg/mL).

`CC[C@H](C)[C@H](NC(=O)CN)C(=O)N[C@@H](CCSC)C(=O)N[C@@H](CO)C(=O)N[C@@H](CO)C(=O)N[C@@H](CC(C)C)C(=O)N[C@@H](CCSC)C(=O)N[C@@H](CCCCN)C(=O)N[C@@H](CCCCN)C(=O)N[C@@H](CC(C)C)C(=O)N[C@@H](CCCCN)C(=O)N[C@@H](C)C(=O)N[C@@H](Cc1cnc[nH]1)C(=O)N[C@H](C(=O)N[C@@H](C)C(=O)N[C@@H](CCCCN)C(N)=O)[C@@H](C)CC` [GIMSSLMKKLKAHIAK]: the MIC in assay [3] is 16 µM (≈ 28.1 µg/mL); in assay [1], 23 µM (≈ 40.4 µg/mL); with Pseudomonas aeruginosa it was 47 µM (≈ 82.5 µg/mL); against Staphylococcus aureus, greater than 100 µM; against Escherichia coli B it was 30 µM (≈ 52.7 µg/mL); in assay [4], 26 µM (≈ 45.6 µg/mL). For the same compound, the values for the MIC (against Bacillus subtilis 168; in [5]; in assay [2]) were 7 µM (≈ 12.3 µg/mL), greater than 100 µM and 3 µM (≈ 5.27 µg/mL), respectively.

`CC[C@H](C)[C@H](NC(=O)[C@H](C)NC(=O)CNC(=O)[C@H](Cc1ccccc1)NC(=O)[C@H](CC(C)C)NC(=O)[C@H](CC(C)C)NC(=O)[C@@H]1CCCN1C(=O)[C@H](CC(C)C)NC(=O)[C@@H](N)Cc1ccccc1)C(=O)N[C@@H](CO)C(=O)N[C@@H](Cc1cnc[nH]1)C(=O)N[C@@H](CC(C)C)C(=O)N[C@@H](CC(C)C)C(N)=O` [FLPLLFGAISHLL]: the MIC in assay [6] was 30.7 µM (≈ 44.3 µg/mL); in [7], no less than 44.4 µM.

Turning to `CC[C@H](C)[C@H](NC(=O)CNC(C)=O)C(=O)NCC(=O)N[C@@H](CCCCN)C(=O)N[C@@H](Cc1cnc[nH]1)C(=O)N[C@H](C(=O)NCC(=O)N[C@@H](CCCCN)C(=O)N[C@@H](C)C(=O)N[C@@H](CC(C)C)C(=O)N[C@@H](CCCCN)C(=O)NCC(=O)N[C@@H](CC(C)C)C(=O)N[C@@H](CCCCN)C(=O)NCC(=O)N[C@@H](CC(C)C)C(=O)N[C@@H](CC(C)C)C(=O)N[C@@H](CCCCN)C(=O)NCC(=O)N[C@@H](CC(C)C)C(=O)NCC(=O)N[C@@H](CCC(=O)O)C(=O)N[C@@H](CO)C(N)=O)C(C)C` [GIGKHVGKALKGLKGLLKGLGES], the MIC (in assay [8]; in [9]; against Escherichia coli K91BK) was no less than 100 µM throughout.

Regarding `CC[C@H](C)[C@H](NC(=O)[C@H](CCCCN)NC(=O)[C@H](CCCN=C(N)N)NC(=O)[C@H](CCCCN)NC(=O)[C@H](CC(C)C)NC(=O)[C@H](CCCN=C(N)N)NC(=O)[C@H](CCCN=C(N)N)NC(=O)[C@H](CC(C)C)NC(=O)[C@H](CCCCN)NC(=O)[C@H](CCCN=C(N)N)NC(C)=O)C(=O)N[C@@H](C)C(=O)N[C@@H](Cc1cnc[nH]1)C(=O)N[C@@H](CCCCN)C(=O)N[C@H](C(=O)N[C@@H](CCCCN)C(=O)N[C@@H](CCCCN)C(=O)N[C@@H](Cc1ccc(O)cc1)C(N)=O)C(C)C` [RKLRRLKRKIAHKVKKY], the MIC in [8] was no less than 100 µM; in assay [9], no less than 57.4 µM; in assay [10], no less than 100 µM; against Escherichia coli K91BK, no less than 100 µM.

Turning to `CC[C@H](C)[C@H](NC(=O)[C@H](C)NC(=O)[C@H](C)NC(=O)[C@@H]1CCCN1C(=O)[C@@H](NC(=O)[C@H](CC(C)C)NC(=O)[C@H](CO)NC(=O)[C@H](CC(C)C)NC(=O)[C@@H](N)Cc1ccccc1)[C@@H](C)CC)C(=O)N[C@@H](CO)C(=O)N[C@@H](C)C(=O)N[C@H](C(=O)N[C@@H](CO)C(=O)N[C@@H](C)C(=O)N[C@@H](CC(C)C)C(=O)N[C@@H](C)C(=O)N[C@@H](CC(N)=O)C(=O)N[C@@H](Cc1cnc[nH]1)C(=O)N[C@@H](Cc1ccccc1)C(N)=O)C(C)C` [FLSLIPAAISAVSALANHF], the MIC was no less than 33 µM in assay [11]; no less than 33 µM in assay [12]; no less than 264 µM in assay [13]; greater than 512 µM in assay [4]; no less than 132 µM in assay [14]; no less than 264 µM in assay [15]. The minimal inhibitory concentration (MIC) in assay [16] was no less than 512 µM.

In the case of `CC(C)C[C@H](NC(=O)[C@H](CC(C)C)NC(=O)[C@H](CCCCN)NC(=O)[C@H](CC(C)C)NC(=O)[C@H](CC(C)C)NC(=O)[C@H](Cc1c[nH]c2ccccc12)NC(=O)[C@H](CCCCN)NC(=O)[C@H](CC(C)C)NC(=O)[C@H](CC(C)C)NC(=O)[C@H](CCCCN)NC(=O)[C@@H](N)CC(C)C)C(N)=O` [LKLLKWLLKLL], the MIC is 9.05 µM (≈ 12.5 µg/mL) in assay [17]; no less than 36.2 µM in assay [18]; greater than 145 µM in assay [19]; 2.25 µM (≈ 3.1 µg/mL) in assay [20]; greater than 145 µM in assay [4]; 1.16 µM (≈ 1.6 µg/mL) in [7]. Also, the results for the MIC in [21], in assay [22] and in assay [23] were 2.25 µM (≈ 3.1 µg/mL), 36.2 µM (≈ 50 µg/mL) and 2.25 µM (≈ 3.1 µg/mL), respectively.

Turning to `CC[C@H](C)[C@@H]1NC(=O)[C@H](C)NC(=O)[C@@H](NC(=O)[C@H](Cc2ccccc2)NC(=O)[C@@H](NC(=O)[C@H](CCCCN)NC(=O)[C@@H]2CCCN2C(=O)[C@H](CC(C)C)NC(=O)[C@H](Cc2ccccc2)NC(=O)[C@H](CCCCN)NC(=O)[C@@H](N)CCCCN)[C@@H](C)CC)CSSC[C@@H](C(=O)O)NC(=O)[C@H](CCCCN)NC(=O)[C@H](CCCCN)NC(=O)[C@H]([C@@H](C)O)NC1=O` [KKFLPKIFCAITKKC], the MIC in assay [11] is 16 µM (≈ 28.3 µg/mL); in [12], 8 µM (≈ 14.1 µg/mL); in [13], no less than 512 µM; in assay [4], 256 µM (≈ 452 µg/mL); in assay [14] it was no less than 32 µM; in [15] it was 16 µM (≈ 28.3 µg/mL). In assay [16], the MIC is no less than 128 µM.

Regarding `CC[C@H](C)[C@H](NC(=O)[C@H](CCCCN)NC(=O)[C@H](CCCN=C(N)N)NC(=O)CNC(=O)[C@H](CC(C)C)NC(=O)[C@H](CCCN=C(N)N)NC(=O)[C@H](CCCN=C(N)N)NC(=O)[C@H](CC(C)C)NC(=O)CNC(=O)[C@H](CCCN=C(N)N)NC(C)=O)C(=O)N[C@@H](C)C(=O)N[C@@H](Cc1cnc[nH]1)C(=O)NCC(=O)N[C@H](C(=O)N[C@@H](CCCCN)C(=O)N[C@@H](CCCCN)C(=O)NCC(=O)NCC(=O)N1CCC[C@H]1C(=O)N[C@H](C(=O)N[C@H](C(=O)N[C@@H](CC(C)C)C(=O)N[C@@H](CCCN=C(N)N)C(=O)N[C@H](C(=O)N[C@H](C(=O)N[C@@H](CCCN=C(N)N)C(=O)N[C@H](C(=O)N[C@@H](C)C(=O)NCC(N)=O)[C@@H](C)CC)[C@@H](C)CC)[C@@H](C)CC)C(C)C)[C@@H](C)O)C(C)C` [RGLRRLGRKIAHGVKKGGPTVLRIIRIAG], the MIC in assay [8] was no less than 70.2 µM; in [9] it was 7.87 µM (≈ 25.1 µg/mL); in assay [10] it was no less than 100 µM; against Escherichia coli K91BK, no less than 100 µM.
